Experimental findings from article PMC4503722, “Novel Phenotypic Outcomes Identified for a Public Collection of Approved Drugs from a Publicly Accessible Panel of Assays” (PLoS ONE, 2015) are described below.

The structures appear in SMILES notation.

Assay [1] deals with INS-1E cells. It counts as cell-based, rat. The conditions noted are these: 0.1 mM glucose; for 0.1mMGluc_INS1E SecretionMod Act IC50/EC50: assay number 9.
Assay [2] concerns tonic K+ channel activity in INS-1E cells. Put plainly: cells. Format: cell-based, rat. The conditions noted are these: 0.1 mM glucose; for 0.1mMGluc_INS1E FluxOR IC50/EC50: assay number 10.
Assay [3] relates to INS-1E cells. Description: cells. It counts as cell-based, rat. The conditions noted are these: 5 mM glucose; for 5mMGluc_INS1E SecretionMod IC50/EC50: assay number 8.
For assay [4], the system named is HeLa cells. Put plainly: cells. Format: cell-based. As to conditions: for Hela CellCycMod PI 2N IC50/EC50: assay number 14; for Hela CellCycMod PI S Phase IC50/EC50: assay number 15; for Hela CellCycMod PI 4N IC50/EC50: assay number 16; for Hela CellCycMod PI MI IC50/EC50: assay number 17; for Hela CellCycMod PI Cell Number IC50/EC50: assay number 18.
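Wherever 5mMGluc INS1E SecretionMod IC50/EC50 is given: secreted insulin quantified by homogeneous immunoassay.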
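Wherever IC50/EC50, 5mMGluc INS1E SecretionMod (assay number 8) is given: secreted insulin quantified by homogeneous immunoassay.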

Turning to `O=c1[nH]c2ccccc2n1CCCN1CCC(n2c(=O)[nH]c3cc(Cl)ccc32)CC1` [NCGC00014670-17], the “IC50/EC50, 0.1mMGluc_INS1E SecretionMod Act (assay number 9)” value in assay [1] is reported as > 33.33 µM. Further, the “IC50/EC50, 0.1mMGluc_INS1E FluxOR (assay number 10)” value in assay [2] is recorded as 36.5303 µM. Besides, the “IC50/EC50, 5mMGluc_INS1E SecretionMod (assay number 8)” value in assay [3] was 12.4283 µM.

With `CN(C)CCC=C1c2ccccc2CCc2ccccc21.Cl` [NCGC00015095-15], the “IC50/EC50, 0.1mMGluc_INS1E SecretionMod Act (assay number 9)” value in assay [1] is > 33.33 µM. In assay [2], the “IC50/EC50, 0.1mMGluc_INS1E FluxOR (assay number 10)” value turned out to be 6.243 µM. In assay [4] (2N), the “IC50/EC50, Hela CellCycMod PI 2N (assay number 14)” value was > 10 µM. Besides, the “IC50/EC50, Hela CellCycMod PI 4N (assay number 16)” value in assay [4] (4N) was > 10 µM. In addition, the “IC50/EC50, Hela CellCycMod PI Cell Number (assay number 18)” value in assay [4] (Cell Number) is reported as > 10 µM. For the same compound, the “IC50/EC50, Hela CellCycMod PI MI (assay number 17)” value in assay [4] (MI) is > 10 µM. Moreover, the “IC50/EC50, Hela CellCycMod PI S Phase (assay number 15)” value in assay [4] (S Phase) is reported as > 10 µM. Also, the “IC50/EC50, 5mMGluc_INS1E SecretionMod (assay number 8)” value in assay [3] turned out to be 2.999 µM.

In the case of `CCCNCC(O)COc1ccccc1C(=O)CCc1ccccc1` (stereo not drawn) [NCGC00015819-15], in assay [1], the “0.1mMGluc_INS1E SecretionMod Act IC50/EC50” value is listed as > 33.33 µM. For the same compound, in assay [2], the “0.1mMGluc_INS1E FluxOR IC50/EC50” value stood at 5.346 µM. In addition, the “Hela CellCycMod PI 2N IC50/EC50” value in assay [4] (2N) is recorded as > 10 µM. In assay [4], the “Hela CellCycMod PI S Phase IC50/EC50” value is reported as > 10 µM and the “Hela CellCycMod PI Cell Number IC50/EC50” value is > 10 µM. In addition, the “Hela CellCycMod PI 4N IC50/EC50” value in assay [4] (4N) is reported as > 10 µM. Besides, the “Hela CellCycMod PI MI IC50/EC50” value in assay [4] (MI) is on record as > 10 µM. In addition, the “5mMGluc_INS1E SecretionMod IC50/EC50” value in assay [3] turned out to be 4.919 µM.

`CCC(=O)c1ccc2c(c1)N(CCCN(C)C)c1ccccc1S2.Cl` [NCGC00015838-06]: the “0.1mMGluc_INS1E SecretionMod Act IC50/EC50” value in assay [1] was > 33.33 µM. Also, in assay [2], the “0.1mMGluc_INS1E FluxOR IC50/EC50” value is on record as 25.7434 µM. Besides, the “5mMGluc_INS1E SecretionMod IC50/EC50” value in assay [3] was 10.7311 µM.

As to `CN(C)CCN(Cc1ccc(Cl)cc1)c1ccccn1` [NCGC00016672-04], in assay [1], the “0.1mMGluc_INS1E SecretionMod Act IC50/EC50” value is 16.7904 µM. Further, in assay [2], the “0.1mMGluc_INS1E FluxOR IC50/EC50” value was found to be 4.782 µM. Also, the “5mMGluc_INS1E SecretionMod IC50/EC50” value in assay [3] was determined as 6.1408 µM.

For the compound `CN1CCCN(C(c2ccccc2)c2ccc(Cl)cc2)CC1` (stereo not drawn) [NCGC00018271-07], the “0.1mMGluc_INS1E SecretionMod Act IC50/EC50” value in assay [1] is reported as > 33.33 µM. For the same compound, the “0.1mMGluc_INS1E FluxOR IC50/EC50” value in assay [2] is on record as 15.6503 µM. Besides, the “5mMGluc_INS1E SecretionMod IC50/EC50” value in assay [3] is listed as > 3.703 µM.

As to `CCN(CCCCOC(=O)c1ccc(OC)c(OC)c1)C(C)Cc1ccc(OC)cc1.Cl` (stereo not drawn) [NCGC00018277-06], the “0.1mMGluc_INS1E SecretionMod Act IC50/EC50” value in assay [1] is reported as > 33.33 µM. The “0.1mMGluc_INS1E FluxOR IC50/EC50” value in assay [2] is 1.737 µM. Besides, the “Hela CellCycMod PI 2N IC50/EC50” value in assay [4] (2N) is given as > 10 µM. In addition, in assay [4], the “Hela CellCycMod PI S Phase IC50/EC50” value is > 10 µM and the “Hela CellCycMod PI Cell Number IC50/EC50” value is reported as > 10 µM. Besides, the “Hela CellCycMod PI 4N IC50/EC50” value in assay [4] (4N) was > 10 µM. In addition, the “Hela CellCycMod PI MI IC50/EC50” value in assay [4] (MI) is on record as > 10 µM. Moreover, in assay [3], the “5mMGluc_INS1E SecretionMod IC50/EC50” value is 1.952 µM.

On to `CCN(CC)CCOCCOC(=O)C1(c2ccccc2)CCCC1` [NCGC00024595-08], for which, in assay [1], the “0.1mMGluc_INS1E SecretionMod Act IC50/EC50” value was > 33.33 µM. For the same compound, the “0.1mMGluc_INS1E FluxOR IC50/EC50” value in assay [2] stood at 4.656 µM. Further, in assay [3], the “5mMGluc_INS1E SecretionMod IC50/EC50” value worked out at 7.687 µM.

As to `CN(C)C/C=C(/c1ccc(Br)cc1)c1cccnc1.Cl.Cl.O` [NCGC00025286-04], in assay [1], the “0.1mMGluc_INS1E SecretionMod Act IC50/EC50” value is > 33.33 µM. For the same compound, in assay [2], the “0.1mMGluc_INS1E FluxOR IC50/EC50” value worked out at 27.874 µM. In addition, the “5mMGluc_INS1E SecretionMod IC50/EC50” value in assay [3] was 8.361 µM.
